Data reported in patent US20260007728A1, “COMBINATION THERAPIES INVOLVING L-ASPARAGINASE” (Jazz Pharmaceuticals Ireland Ltd., priority 2022, published 2026).

What was measured:
[1] = system: cell lines with low and high ASNS expression; assay: Bliss synergy of pathway inhibitors with JZP-458 (cytotoxicity readout); assay type: cell-based; conditions: in combination with JZP-458
Experimental: Combination study BLISS matrix-Bliss Assay Protocol: Cells were plated in 384-well plates in 45 μl cell culture medium at a density of, that is, at numbers of cells per well as indicated in FIG. 24. For each cell line, the optimal cell density was determined a priori to obtain an optimal assay window. Plated cells were incubated in a humidified incubator with 5% CO2 at 37° C. 24 hours post-plating, 5 μl of compound dilution was added to each well and plates were further incubated for another 72 hours after which 25 μl of ATPlite 1 Step (PerkinElmer, Groningen, The Netherlands) solution was added to each well. Luminescence was recorded on an Envision multimode reader (PerkinElmer, Waltham, MA, U.S.A.). For determination of Bliss independence scores, two drugs were added in increasing concentrations in a 6×6 matrix. […] The percent viability for each drug either alone or in combination was determined relative to control samples and the Bliss independence scores for each combination were determined as described (Liu, Q., et al., Stat Biopharm. Res. 10: 112; 2018). […]

[2] = system: BCL2 expression in triple hit lymphoma line WSU-DLCL2; assay: qPCR gene expression after compound treatment; assay type: cell-based
Experimental: Cell Culture: Cell culture medium: RPMI 1640 medium (#2198761, Thermo Fisher) supplemented with 10% fetal calf serum (#S00AZ, BioWest) and 1% pen/strep (#15140-122, Thermo Fisher). At day-1, 900 μl cell suspension was seeded in 24-well plates (#662165, Greiner Bio-One) at a density of 128,000 cells/well. At day 0, 100 μl compound was added in three different concentrations to reach a final concentration of 0.316×IC50, 1×IC50, and 3.16×IC50 (unless indicated otherwise). To the control samples, 100 μl 20 mM HEPES+3.16% DMSO was added instead of compound. When the compound is prepared in HEPES instead of DMSO, 20 mM HEPES without DMSO was added to the cells. The cells were collected at 6 hours, 24 hours and 48 hours after addition of the compound and were transferred to a 96-well deep well plate and centrifuged for 5 min at 340×g. Prior to the collection of the cells microscopic pictures were taken from the untreated (control) cells. After removing the medium, 200 μl RNA protect (#76526, Qiagen) was added to the cell pellet and the cells were stored at −80° C.
RNA isolation: Total RNA was isolated with the SV96 Total RNA Isolation System kit (#Z3505, Promega) according to manufacturer's instructions. The procedure includes a ‘RNAse free DNAse’ gDNA removal step.
Determining the RNA concentration: RNA concentrations were determined with the RiboGreen (#R11490, Thermo Fisher) kit according to manufacturer's instructions.
cDNA synthesis: RNA was reverse transcribed into cDNA using the Quantitect Reverse Transcript Kit (#205313, Qiagen) according to manufacturer's instructions. This procedure includes a second ‘RNAse free DNAse’ gDNA removal step, ensuring the complete removal of gDNA from the samples. For each time point (6 h, 24 h, or 48 h) identical volumes of RNA were used for cDNA synthesis. After synthesis, cDNA is diluted with nuclease free water to obtain approximately similar cDNA concentrations per sample.
qPCR: 1) 50° C. for 10 min (Uracil-DNA glycosylase ([…]) step to remove all potential traces of amplicon DNA from previous qPCRs); 2) 5 min UDP inactivation/denaturation at 95° C.; 3) 40 cycles of 10s denaturation at 95° C., 20s annealing at 60° C., and 30s extension at 72° C.; and 4) Dissociation curve to determine the melting temperature of the qPCR amplicon.
qPCR Data Analysis: Cq and Tm raw data values are determined by the BioRad CFX manager software from the PCR machine. For every PCR sample that produced a Cq value the corresponding melting temperature of the PCR amplicon (Tm) was checked to identify samples that generated dual or a specific PCR products. A PCR product is regarded a specific when its Tm is >0.5° C. different from that the Tm of the specific PCR amplicon, in this case the Cq value is removed and not used for further data analysis. Cq values were than normalized by subtracting the (mean) Cq value of the two housekeeping genes (ACTB & RPS18) from the Cq value of the gene of interest. The normalized value is called DCq. The Cq difference between sample and the control (DDCq) was calculated by subtracting DCq control from DCq sample. The fold difference in expression between the control (no compound) and the compound treated sample is than calculated according the 2^-DDCq method.

[3] = Aggregation of asparaginase batches; assay type: physicochemical; conditions: product batches
Source text: In some embodiments, the recombinant L-asparaginase of the disclosure has greater purity than other L-asparaginases. […] In some embodiments, the amount of aggregation of the recombinant L-asparaginase is less than 10%, 9%, 8%, 7%, 6%, 5%, 4%, 3%, 2%, 1%, 0.5%, 0.25%, 0.2%, 0.1%, or 0.01%. In some embodiments, the amount of aggregation seen in compositions containing the recombinant L-asparaginase is less than 1-10%. In some embodiments, the amount of aggregation seen in compositions containing the recombinant L-asparaginase is less than 10%. In some embodiments, the amount of aggregation of the recombinant L-asparaginase is less than 9%. In some embodiments, the amount of aggregation of the recombinant L-asparaginase is less than 8%. In some embodiments, the amount of aggregation of the recombinant L-asparaginase is less than 7%. In some embodiments, the amount of aggregation of the recombinant L-asparaginase is less than 6%. In some embodiments, the amount of aggregation of the recombinant L-asparaginase is less than 5%. In some embodiments, the amount of aggregation of the recombinant L-asparaginase is less than 4%. In some embodiments, the amount of aggregation of the recombinant L-asparaginase is less than 3%. In some embodiments, the amount of aggregation of the recombinant L-asparaginase is less than 2%. […]

[4] = Half life of asparaginases; conditions: in vivo
[5] = In vivo tolerability study in naïve SCID mice; conditions: 150 U/kg in combination with venetoclax and R-CHOP constituents
Source text: Sensitivity to asparaginase and 11 chemotherapeutic agents (carfilzomib, doxorubicin, rapamycin, ibrutinib, cyclophosphamide, prednisolone, metformin, venetoclax, navitoclax, rituximab and vincristine) determined in 8 lymphoma lines, including diffuse large B-cell and Burkitt lymphomas. The investigated lymphoma lines are sensitive to asparagine depletion within the clinically achievable range. Expression of decisive genes (BCL2, BCL6, BCL2L1, MYC, ASNS) determined in 8 lymphoma lines (FIGS. 11 and 12). Increased expression of BCL2 served as marker for resistance of ibrutinib and rapamycin in triple hit lymphoma (FIGS. 11 and 12). Increased expression of ASNS served as marker for resistance of carfilzomib and asparaginase in Burkitt lymphoma (FIGS. 11 and 12). Identified combination agents that enhanced asparaginase activity in vitro include synergy of JZP458 and rituximab, venetoclax and ibrutinib in lymphoma lines (DLBCL) (see FIG. 13, FIG. 15, and FIG. 17). […] In vivo tolerability study of long acting Erwinia Asparaginase.

In the case of `CO[C@H]1C[C@@H]2CC[C@@H](C)[C@@](O)(O2)C(=O)C(=O)N2CCCC[C@H]2C(=O)O[C@H]([C@H](C)C[C@@H]2CC[C@@H](OCCO)[C@H](OC)C2)CC(=O)[C@H](C)/C=C(\C)[C@@H](O)[C@@H](OC)C(=O)[C@H](C)C[C@H](C)/C=C/C=C/C=C/1C` [everolimus], the “Bliss sum score compared with PI3K inhibitors and MEK inhibitors” value [1] is reported as “increased”.

With `C=CC(=O)N1CCC[C@@H](n2nc(-c3ccc(Oc4ccccc4)cc3)c3c(N)ncnc32)C1` [ibrutinib] the “increase of BCL2 expression” value [2] was 1.25 fold.

In the case of `CO[C@H]1C[C@@H]2CC[C@@H](C)[C@@](O)(O2)C(=O)C(=O)N2CCCC[C@H]2C(=O)O[C@H]([C@H](C)C[C@@H]2CC[C@@H](O)[C@H](OC)C2)CC(=O)[C@H](C)/C=C(\C)[C@@H](O)[C@@H](OC)C(=O)[C@H](C)C[C@H](C)/C=C/C=C/C=C/1C` [rapamycin], the “increase of BCL2 expression” value [2] is reported as 1 fold.

B1: Erwinase: Erwinia chrysanthemi L-asparaginase type II product commercially approved for ALL (protein, UniProt P06608 22-348, looked up)
L-asparaginase: ADKLPNIVILATGGTIAGSAATGTQTTGYKAGALGVDTLINAVPEVKKLANVKGEQFSNMASENMTGDVVLKLSQRVNELLARDDVDGVVITHGTDTVEESAYFLHLTVKSDKPVVFVAAMRPATAISADGPMNLLEAVRVAGDKQSRGRGVMVVLNDRIGSARYITKTNASTLDTFKANEEGYLGVIIGNRIYYQNRIDKLHTTRSVFDVRGLTSLPKVDILYGYQDDPEYLYDAAIQHGVKGIVYAGMGAGSVSVRGIAGMRKAMEKGVVVIRSTRTGNGIVPPDEELPGLVSDSLNPAHARILLMLALTRTSDPKVIQEYFHTY
In the case of B1, the aggregation [3] is reported as “about 6%”.

B2: JZP341: pasylated L-asparaginase; long acting Erwinia asparaginase (protein, UniProt P06608 22-348, looked up)
L-asparaginase: ADKLPNIVILATGGTIAGSAATGTQTTGYKAGALGVDTLINAVPEVKKLANVKGEQFSNMASENMTGDVVLKLSQRVNELLARDDVDGVVITHGTDTVEESAYFLHLTVKSDKPVVFVAAMRPATAISADGPMNLLEAVRVAGDKQSRGRGVMVVLNDRIGSARYITKTNASTLDTFKANEEGYLGVIIGNRIYYQNRIDKLHTTRSVFDVRGLTSLPKVDILYGYQDDPEYLYDAAIQHGVKGIVYAGMGAGSVSVRGIAGMRKAMEKGVVVIRSTRTGNGIVPPDEELPGLVSDSLNPAHARILLMLALTRTSDPKVIQEYFHTY
modifications: PASylated
For B2, the “half life t½” value [4] was about 16 h and the tolerability [5] was “tolerated”.
